Source: ChEMBL document CHEMBL1140798, “Novel thiol-based TACE inhibitors. Part 2: Rational design, synthesis, and SAR of thiol-containing aryl sulfones” (Bioorg Med Chem Lett, 2008)

Key:
[1] = biological target: Disintegrin and metalloproteinase domain-containing protein 17 (Homo sapiens, UniProt P78536); test: Inhibition of TACE
Matrilysin = biological target: T1, Matrilysin (Homo sapiens, UniProt P09237); test: Inhibition of MMP7
T1 sequence (P09237 whole entry): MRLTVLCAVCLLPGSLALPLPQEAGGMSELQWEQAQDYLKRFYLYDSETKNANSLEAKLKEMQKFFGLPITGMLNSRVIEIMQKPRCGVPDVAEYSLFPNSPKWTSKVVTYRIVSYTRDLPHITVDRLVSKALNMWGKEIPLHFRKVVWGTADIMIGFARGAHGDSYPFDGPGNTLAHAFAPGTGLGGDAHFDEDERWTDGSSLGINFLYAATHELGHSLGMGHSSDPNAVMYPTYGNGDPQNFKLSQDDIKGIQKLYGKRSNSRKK

Neutrophil collagenase = Neutrophil collagenase (Homo sapiens, UniProt P22894); test: Inhibition of MMP8
Neutrophil collagenase, sequence (P22894 whole entry): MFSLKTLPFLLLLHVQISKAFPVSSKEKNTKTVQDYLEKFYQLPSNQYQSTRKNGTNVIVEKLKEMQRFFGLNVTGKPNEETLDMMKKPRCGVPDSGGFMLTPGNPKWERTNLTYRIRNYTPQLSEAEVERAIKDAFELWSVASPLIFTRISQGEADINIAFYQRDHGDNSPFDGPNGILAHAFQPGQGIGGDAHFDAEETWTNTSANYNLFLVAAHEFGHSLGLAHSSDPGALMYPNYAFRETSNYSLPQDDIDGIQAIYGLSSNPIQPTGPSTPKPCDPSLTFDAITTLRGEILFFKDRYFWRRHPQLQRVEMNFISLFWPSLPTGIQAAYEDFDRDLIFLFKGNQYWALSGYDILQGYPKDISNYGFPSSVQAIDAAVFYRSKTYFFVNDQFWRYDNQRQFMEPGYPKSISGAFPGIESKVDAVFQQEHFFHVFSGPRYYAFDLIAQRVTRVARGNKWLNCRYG

[2] = biological target: 72 kDa type IV collagenase (Homo sapiens, UniProt P08253); test: Inhibition of MMP2
72 kDa type IV collagenase, sequence (P08253 whole entry): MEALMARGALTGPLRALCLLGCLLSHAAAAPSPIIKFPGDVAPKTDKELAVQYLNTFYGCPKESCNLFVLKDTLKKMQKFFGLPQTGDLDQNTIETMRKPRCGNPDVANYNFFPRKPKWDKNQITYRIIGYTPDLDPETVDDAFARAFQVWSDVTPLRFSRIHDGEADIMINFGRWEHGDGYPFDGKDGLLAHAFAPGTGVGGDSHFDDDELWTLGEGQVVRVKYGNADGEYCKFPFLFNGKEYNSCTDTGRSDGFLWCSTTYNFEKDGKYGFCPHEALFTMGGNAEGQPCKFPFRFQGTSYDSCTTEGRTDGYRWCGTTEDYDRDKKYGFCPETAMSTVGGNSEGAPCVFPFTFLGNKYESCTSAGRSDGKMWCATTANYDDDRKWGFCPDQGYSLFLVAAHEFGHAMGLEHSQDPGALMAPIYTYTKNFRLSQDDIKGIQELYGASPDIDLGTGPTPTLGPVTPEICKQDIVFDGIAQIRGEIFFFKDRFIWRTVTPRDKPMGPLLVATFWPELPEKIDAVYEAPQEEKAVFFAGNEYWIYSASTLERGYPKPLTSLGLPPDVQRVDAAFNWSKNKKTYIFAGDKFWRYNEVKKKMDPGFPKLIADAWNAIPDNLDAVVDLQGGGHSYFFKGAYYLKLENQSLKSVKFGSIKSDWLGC

Collagenase 3 = Collagenase 3 (Homo sapiens, UniProt P45452); test: Inhibition of MMP13
[3] = biological target: Matrix metalloproteinase-9 (Homo sapiens, UniProt P14780); test: Inhibition of MMP9
Matrix metalloproteinase-9, sequence (P14780 whole entry): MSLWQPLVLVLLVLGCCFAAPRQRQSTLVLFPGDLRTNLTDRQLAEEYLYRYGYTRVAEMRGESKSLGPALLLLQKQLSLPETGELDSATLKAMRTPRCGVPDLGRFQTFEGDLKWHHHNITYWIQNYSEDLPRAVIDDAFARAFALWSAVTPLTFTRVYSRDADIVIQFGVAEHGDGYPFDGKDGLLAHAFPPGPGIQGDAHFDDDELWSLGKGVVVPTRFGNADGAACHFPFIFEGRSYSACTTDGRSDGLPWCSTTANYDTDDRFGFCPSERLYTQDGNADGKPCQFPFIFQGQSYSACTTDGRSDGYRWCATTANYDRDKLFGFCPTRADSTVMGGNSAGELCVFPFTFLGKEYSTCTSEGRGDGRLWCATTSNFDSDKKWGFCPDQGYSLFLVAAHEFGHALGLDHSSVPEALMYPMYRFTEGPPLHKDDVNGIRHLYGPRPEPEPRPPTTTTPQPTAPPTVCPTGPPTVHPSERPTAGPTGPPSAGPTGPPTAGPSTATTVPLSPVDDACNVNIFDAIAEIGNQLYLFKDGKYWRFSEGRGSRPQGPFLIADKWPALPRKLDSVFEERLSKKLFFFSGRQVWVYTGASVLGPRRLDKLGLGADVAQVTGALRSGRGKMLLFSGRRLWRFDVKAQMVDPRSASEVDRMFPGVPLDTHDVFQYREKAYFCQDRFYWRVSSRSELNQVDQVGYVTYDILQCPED

Disintegrin and metalloproteinase domain-containing protein 17, sequence (P78536 whole entry, the tested form may be a part): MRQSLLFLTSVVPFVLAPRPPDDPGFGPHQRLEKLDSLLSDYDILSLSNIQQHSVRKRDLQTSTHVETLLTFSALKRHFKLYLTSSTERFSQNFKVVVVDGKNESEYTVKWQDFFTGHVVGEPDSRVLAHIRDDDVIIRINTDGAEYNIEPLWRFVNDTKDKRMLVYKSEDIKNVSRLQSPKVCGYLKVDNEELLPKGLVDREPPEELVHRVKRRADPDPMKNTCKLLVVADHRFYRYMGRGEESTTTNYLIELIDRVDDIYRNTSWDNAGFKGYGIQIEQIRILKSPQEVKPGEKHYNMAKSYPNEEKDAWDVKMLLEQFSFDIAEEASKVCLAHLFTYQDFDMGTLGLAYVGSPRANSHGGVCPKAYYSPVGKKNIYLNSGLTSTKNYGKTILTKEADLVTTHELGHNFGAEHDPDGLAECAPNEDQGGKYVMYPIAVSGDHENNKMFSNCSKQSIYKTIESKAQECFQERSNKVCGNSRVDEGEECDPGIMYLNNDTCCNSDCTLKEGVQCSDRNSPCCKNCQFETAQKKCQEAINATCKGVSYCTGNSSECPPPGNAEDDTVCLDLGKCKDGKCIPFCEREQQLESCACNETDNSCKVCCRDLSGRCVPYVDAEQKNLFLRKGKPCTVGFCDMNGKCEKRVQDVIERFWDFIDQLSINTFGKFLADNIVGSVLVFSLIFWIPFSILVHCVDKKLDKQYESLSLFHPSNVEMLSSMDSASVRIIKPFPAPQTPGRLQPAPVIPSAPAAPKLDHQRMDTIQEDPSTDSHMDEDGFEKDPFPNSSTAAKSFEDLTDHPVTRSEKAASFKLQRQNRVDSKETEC

Row | SMILES | Ki [1] [nM] | other results
1 | CC#CCOc1ccc(S(=O)(=O)C2CCC(S)C2)cc1 (stereo unspecified) | 50 | 
2 | CC#CCOc1ccc(S(=O)(=O)CCS)cc1 | 8 | 
3 | CC#CCNc1ccc(S(=O)(=O)CCS)cc1 | 2 | 
4 | CC#CCNc1ccc(S(=O)(=O)CCCS)cc1 | 4.5 | 
5 | CC#CCOc1ccc(S(=O)(=O)[C@@H]2CCC[C@@H](S)C2)cc1 | 30 | 
6 | CC#CCNc1ccc(S(=O)(=O)[C@@H]2CCC[C@@H](S)C2)cc1 | 17 | 
7 | CC#CCOc1ccc(S(=O)(=O)CCCS)cc1 |  | Ki (Matrilysin): > 2500 nM; Ki (Neutrophil collagenase): 2700 nM; Ki [2]: 1300 nM; Ki (Collagenase 3): 1700 nM; Ki [3]: 6300 nM
